According to patent US20210205329A1 (The University of North Carolina at Chapel Hill, priority 2018, published 2021):
Like-named read-outs stand apart in the source and are kept apart here.

Tests used:
[1] = system: LPS-activated TLR4 signal; experiment: LPS-activated TLR4 signaling in RAW264.7 cells (immunoblotting); format: cell-based, mouse; conditions: for effect on TLR4 expression: 0.5 μM or 1 μM, LPS-treated RAW264.7, 24 hrs; for inhibition of LPS-increased pTAK1, TRAF6, NFκB p50, phospho-NF-κB p65, pCREB, HMGB1, MCP-1 and TNFα (overall): 0.5-1.0 μM; for inhibition of LPS-increased pTAK1, TRAF6, NFκB p50, phospho-NF-κB p65, pCREB, HMGB1, MCP-1 and TNFα (overall) / inhibition at 0.5 µM / inhibition at 1 µM / inhibition of LPS-induced NFκB p50 / inhibition of the effect of LPS activation of TLR4 on MCP-1 / inhibition of the effect of LPS activation on TRAF6 / inhibition of the effect of LPS activation on pTAK1 / inhibition of the effect of LPS on HMGB1 / inhibition of the effect of LPS on TNFα / inhibition of the effect of LPS on pCREB / inhibition of the effect of LPS on phospho-NF-κB p65: RAW264.7; for inhibition at 0.5 µM / inhibition at 1 µM: Mus musculus; for inhibition at 0.5 µM / inhibition at 1 µM / inhibition of LPS-induced NFκB p50 / inhibition of the effect of LPS activation of TLR4 on MCP-1 / inhibition of the effect of LPS activation on TRAF6 / inhibition of the effect of LPS activation on pTAK1 / inhibition of the effect of LPS on HMGB1 / inhibition of the effect of LPS on TNFα / inhibition of the effect of LPS on pCREB / inhibition of the effect of LPS on phospho-NF-κB p65: LPS 1 μg/ml, 24 hrs
Procedure: Cells and reagents. Mouse monocyte macrophage ceils (RAW264.7) that innately express the TLR4 receptor were obtained from American Type Culture Collection (Manassas, Va., USA). The cells were grown in Dulbecco's modified Eagle's medium (DMEM) (Gibco; Gaithersburg, Md., USA) supplemented with 10% fetal bovine serum (FBS, Gemini, West Sacramento, Calif., USA), 1% penicillin/streptomycin 100× (Gibco) at 37° C. in a 5% CO2 humidified atmosphere. The TLR4-specific ligand IPS was purchased from Sigma-Aldrich (St. Louis, Mo., USA) (Cat. #L3024) and added to the cultures (1 μg/ml) 24 hrs before cell collection.
Immunoblotting. The assay used for RAW264.7 cell lysates and co-immunoprecipitation was as previously described (Aurelian et al, 2016; June et al, 2015; Liu et al, 2011). RAW246.7 cells grown on T-75 flasks (n=5 flasks/group) were lysed with radioimmunoprecipitation (RIPA) buffer [20 mM Tris-HCl (pH 7.4), […], 1% Nonidet P-40 (Sigma, St. Louis, Mo., USA), 0.1% SDS (sodium dodecyl sulfate), 0.5% sodium deoxycholate] supplemented with protease and phosphatase inhibitor cocktails (Sigma). The total protein was determined by the bicinchoninic acid assay (BCA, Thermo Fisher Scientific, Waltham, Mass., USA, Cat. #23228 and Cat. #1859078). The proteins (100 μg/lane) were resolved by SDS-polyacrylamide gel electrophoresis using freshly prepared 16×18 cm gels and transferred to polyvinylidene fluoride membranes (PVDF, Bio-Rad, Cat. #162-0177). Blots were blocked with 5% Blotting-Grade Blocker (Bio-Rad, Cat. #1706404; for non-phosphorylated primary antibodies) or 5% BSA (for phosphorylated primary antibodies) for 2 hrs at room temperature (RT) and exposed to primary antibody overnight (4° C.), followed by horseradish peroxidase-labeled secondary antibodies for 1 h (room temp), immunoreactive bands were visualized with the Plus-ECL kit reagents (Perkin Elmer, Waltham, Mass., USA, Cat. #NEL105001EA) followed by exposure to high-performance chemiluminescence film (Hyperfilm ECL; Amersham). Quantitation was by densitometric scanning with a Bio-Rad GS-700 imaging densitometer. Blots were stripped and re-probed with different primary antibodies 3-5 times. Each densitometric measurement was divided by the corresponding β-Actin densitometric measurement and the results [n=5/group] are expressed as the mean β-Actin-adjusted densitometric units±SEM.
To examine whether the neurosteroids inhibit the LPS-activated TLR4 signal, RAW264.7 cells were treated with IPS (1 μg/mi; 24 hrs) in the absence or presence of 3α,5α-THP (0.5 μM, 1 μM) or pregnenolone (0.5 μM, 1 μM), and ceil extracts were assayed for expression of MyD88-dependent pathway members, by immunoblotting with antibodies to pTAK1, monocyte chemotactic protein (MCP-1), TRAF6, TLR4, and transcription factor NFκB p50 (Chattopadhyay S, et al. (2014). Cytokine Growth Factor Rev 25(5): 533-541; Irie T, et al. (2000). FEBS Lett 467(2-3): […]; Lu Y C, et al. (2008). Cytokine 42(2): 145-151).
Because the neurosteroids had relatively little effect on NFκB p50, the possibility that inhibition of other transcription factors and proinflammatory responses may be involved was considered. RAW246.7 ceils were treated as described above and protein extracts were immunoblotted with antibodies to phospho-NF-κB p65, pCREB, the proinflammatory cytokine tumor necrosis factor alpha (TNFα), and high mobility group box-1 (HMGB1), a highly conserved non-histone chromosomal protein, the translocation of which from the intra- to extra-cellular environment is a critical event in inflammatory responses. Indeed, HMGB1 is currently recognized as a cytokine secreted from activated macrophages and other inflammatory cells during the innate immune response and if is believed to function as a TLR4 ligand. […]

TLR2 signaling = experiment: Pam3Cys-activated TLR2 signaling in RAW264.7 cells; format: cell-based, mouse
Procedure: (§1) Because multiple TLRs signal through MD-2, […] and MyD-88, the specificity of the neurosteroid 3α,5α-THP on TLR2, TLRS and TLR7 signal activation was examined in RAW264.7 ceils (FIG. 7). Pam3Cys (10 μg/ml) activated TLR2 signaling, evidenced by increases in pCREB, pERK1/2, TRAF6 and pATF-2, that were sustained for 24 hrs and inhibited by 3α,5α-THP (1 μM) (50-60% compared to vehicle).

TLR7 signal = experiment: Imiquimod-activated TLR7 signaling in RAW264.7 cells; format: cell-based, mouse; conditions: 1 μM; imiquimod 1 μg/ml; 24 hours
Procedure: as §1

MCP-1 = MCP-1 ELISA in P rat NAc; format: in vivo; conditions: 15 mg/kg I.P., 45 min
Procedure: ELISA. Brain tissue micropunches were lysed with Cellyte MT and the extracts were assayed for protein content by the BCA procedure (Pierce) and for MCP-1 using the rat MCP-1 ELISA kit (Raybiotech—ERC-MCP-1-CL; Norcross, Ga., USA) or for fracktalkine using the rat fractalkine ELISA kit (Raybiotech—ERC-CX3CL1-CL; Norcross, Ga., USA) as per manufacturer's instructions.
Next, potential sex differences were directly examined in baseline or 3α,5α-THP inhibition of MCP-1 and pIRF7 expression in female vs. male P rat NAc (FIG. 9). […] Systemic administration of 3α,5α-THP (15 mg/kg, I.P.) to naïve female and male P rats inhibited the expression of MCP-1 (40% in female rat NAc; 25% in male rat NAc). Likewise, 3α,5α-THP administration to naïve female and male P rats inhibited the expression of pIRF7 to the same extent, (55% in female rat NAc; 55% in male rat NAc).

CX3CL1 = CX3CL1 expression in human macrophages; format: cell-based; conditions: 1 μM

CC(=O)[C@H]1CC[C@H]2[C@@H]3CC[C@H]4C[C@H](O)CC[C@]4(C)[C@H]3CC[C@]12C [3α,5α-THP, (3α,5α)3-hydroxypregnan-20-one]
effect on TLR4 expression [1]: did not affect | inhibition of LPS-increased pTAK1, TRAF6, NFκB p50, phospho-NF-κB p65, pCREB, HMGB1, MCP-1 and TNFα (overall) [1]: ~80% | inhibition at 0.5 µM ([1]; 0.5 μM, read-out: inhibition of LPS-induced NFκB p50): 19.8 ± 7.9% | inhibition at 0.5 µM ([1]; 0.5 μM, read-out: inhibition of the effect of LPS activation of TLR4 on MCP-1): 81.5 ± 3.8% | inhibition at 0.5 µM ([1]; 0.5 μM, read-out: inhibition of the effect of LPS activation on TRAF6): 54.5 ± 5.5% | inhibition at 0.5 µM ([1]; 0.5 μM, read-out: inhibition of the effect of LPS activation on pTAK1): 37.8 ± 7.7% | inhibition at 0.5 µM ([1]; 0.5 μM, read-out: inhibition of the effect of LPS on HMGB1): 88.9 ± 11% | inhibition at 0.5 µM ([1]; 0.5 μM, read-out: inhibition of the effect of LPS on TNFα): 77.8 ± 7.3% | inhibition at 0.5 µM ([1]; 0.5 μM, read-out: inhibition of the effect of LPS on pCREB): 97.2 ± 1.9% | inhibition at 0.5 µM ([1]; 0.5 μM, read-out: inhibition of the effect of LPS on phospho-NF-κB p65): 90.1 ± 8.5% | inhibition at 1 µM ([1]; 1.0 μM, read-out: inhibition of LPS-induced NFκB p50): 38.3 ± 7.3% | inhibition at 1 µM ([1]; 1.0 μM, read-out: inhibition of the effect of LPS activation of TLR4 on MCP-1): 85.2 ± 4.5% | inhibition at 1 µM ([1]; 1.0 μM, read-out: inhibition of the effect of LPS activation on TRAF6): 55.3 ± 2.6% | inhibition at 1 µM ([1]; 1.0 μM, read-out: inhibition of the effect of LPS activation on pTAK1): 71.7 ± 3.6% | inhibition at 1 µM ([1]; 1.0 μM, read-out: inhibition of the effect of LPS on HMGB1): 58.6 ± 5.5% | inhibition at 1 µM ([1]; 1.0 μM, read-out: inhibition of the effect of LPS on TNFα): 70.9 ± 3.5% | inhibition at 1 µM ([1]; 1.0 μM, read-out: inhibition of the effect of LPS on pCREB): 94.8 ± 3.4% | inhibition at 1 µM ([1]; 1.0 μM, read-out: inhibition of the effect of LPS on phospho-NF-κB p65): 88.9 ± 10.8% | effect of Pam3Cys on pCREB, pERK1/2, pATF2 and TRAF6 (TLR2 signaling; 1 μM, Pam3Cys 10 μg/ml, harvested after 24 hrs): completely inhibited | inhibition at 1 µM (TLR2 signaling; Mus musculus, RAW264.7, Pam3Cys 10 μg/ml, 24 hrs, compared to vehicle, read-out: inhibition of Pam3Cys-induced increases in pCREB, pERK1/2, TRAF6 and pATF-2): 50 to 60% | effect of imiquimod on pIRF7 (TLR7 signal): completely inhibited | inhibition of MCP-1 expression in NAc (MCP-1; naïve female P rats): 40% | inhibition of MCP-1 expression in NAc (MCP-1; naïve male P rats): 25% | expression of the anti-inflammatory cytokine CX3CL1 (CX3CL1): increases expression

CC(=O)[C@H]1CC[C@H]2[C@@H]3CC=C4C[C@@H](O)CC[C@]4(C)[C@H]3CC[C@]12C [pregnenolone]
effect on TLR4 expression [1]: did not affect | inhibition of LPS-induced NFκB p50 ([1]; 0.5 μM): 25.3±7.4% | inhibition of the effect of LPS activation of TLR4 on MCP-1 ([1]; 0.5 μM): 77.3±7.3% | inhibition of the effect of LPS activation on TRAF6 ([1]; 0.5 μM): 73.7±1.3% | inhibition of the effect of LPS activation on pTAK1 ([1]; 0.5 μM): 76.2±2.0% | inhibition of the effect of LPS on HMGB1 ([1]; 0.5 μM): 52.0±9.8% | inhibition of the effect of LPS on TNFα ([1]; 0.5 μM): 61.7±3.6% | inhibition of the effect of LPS on pCREB ([1]; 0.5 μM): 84.8±9.9% | inhibition of the effect of LPS on phospho-NF-κB p65 ([1]; 0.5 μM): 86.7±7.3% | inhibition of LPS-induced NFκB p50 ([1]; 1.0 μM): 28.8±6.7% | inhibition of the effect of LPS activation of TLR4 on MCP-1 ([1]; 1.0 μM): 85.8±4.4% | inhibition of the effect of LPS activation on TRAF6 ([1]; 1.0 μM): 88.5±6.8% | inhibition of the effect of LPS activation on pTAK1 ([1]; 1.0 μM): 95.2±2.5% | inhibition of the effect of LPS on HMGB1 ([1]; 1.0 μM): 57.5±12.8% | inhibition of the effect of LPS on TNFα ([1]; 1.0 μM): 65.1±7.7% | inhibition of the effect of LPS on pCREB ([1]; 1.0 μM): 83.7±8.9% | inhibition of the effect of LPS on phospho-NF-κB p65 ([1]; 1.0 μM): 88.1±5.5% | inhibition of LPS-increased pTAK1, TRAF6, NFκB p50, phospho-NF-κB p65, pCREB, HMGB1, MCP-1 and TNFα (overall) [1]: ~80%
